The experiment has as its target T1, PDE4B (human recombinant) (Homo sapiens, UniProt Q07343).
T1 construct: made in house
Nature of the experiment: Inhibition of PDE4B activity: radioactive SPA or IMAP Fluorescence Polarisation (FP) assay. It counts as biochemical. The note with it: PDE4B inhibitory activity, one reading or average of ca. 2-6 readings, read-out: PDE4B pIC50 (± about 0.5) (converted). An excerpt: Human recombinant PDE4B, in particular the 2B splice variant thereof (HSPDE4B2B), is disclosed in WO 94/20079 and also M. M. McLaughlin et al., “A low Km, rolipram-sensitive, cAMP-specific phosphodiesterase from human brain: cloning and expression of cDNA, biochemical characterisation of recombinant protein, and tissue distribution of mRNA”, J. Biol. Chem., 1993, 268, 6470-6476. For example, in Example 1 of WO 94/20079, human recombinant PDE4B is described as being expressed in the PDE-deficient yeast Saccharomyces cerevisiae strain GL62, e.g. after induction by addition of 150 uM CuSO4, and 100,000×g supernatant fractions of yeast cell lysates are described for use in the harvesting of PDE4B enzyme.
The ability of compounds to inhibit catalytic activity at PDE4B or 4D (human recombinant), PDE3 (from bovine aorta), PDE5 (human recombinant) or PDE6 (from bovine retina) was determined by Scintillation Proximity Assay (SPA) in 96-well format. Test compounds (preferably as a solution in DMSO, e.g. 0.5 to 1 microlitre (ul) volume) were preincubated at ambient temperature (room temperature, e.g. 19-23° C.) in Wallac Isoplates (code 1450-514) with PDE enzyme in 50 mM Tris-HCl buffer pH 7.5, 8.3 mM MgCl2, 1.7 mM EGTA, 0.05% (w/v) bovine serum albumin for 10-30 minutes (usually 30 minutes). The enzyme concentration was adjusted so that no more than 20% hydrolysis of the substrate defined below occurred in control wells without compound, during the incubation. For the PDE3, PDE4B and PDE4D assays, [5′,8-^3H]Adenosine 3′,5′-cyclic phosphate (Amersham Pharmacia Biotech, code TRK.559; or Amersham Biosciences UK Ltd, Pollards Wood, Chalfont St Giles, Buckinghamshire HP8 4SP, UK) was added to give 0.05 uCi per well and ˜10 nM final concentration. For the PDE5 and PDE6 assays, [8-^3H]Guanosine 3′,5′-cyclic phosphate (Amersham Pharmacia Biotech, code TRK.392) was added to give 0.05 uCi per well and ˜36 nM final concentration. Plates, e.g. containing approx. 100 ul volume of assay mixture, were mixed on an orbital shaker for 5 minutes and incubated at ambient temperature for 1 hour. Phosphodiesterase SPA beads (Amersham Pharmacia Biotech, code RPNQ 0150) were added ([…] per well) to terminate the assay. Plates were sealed and shaken and allowed to stand at ambient temperature for 35 minutes to 1 hour (preferably 35 minutes) to allow the beads to settle. Bound radioactive product was measured using a WALLAC TRILUX 1450 Microbeta scintillation counter. For inhibition curves, 10 concentrations (1.5 nM-30 uM) of each compound were assayed. Curves were analysed using ActivityBase and XLfit (ID. Business Solutions Limited, 2 Ocean Court, Surrey Research Park, Guildford, Surrey GU2 7QB, United Kindgom) Results were expressed as pIC50 values.
The ability of compounds to inhibit catalytic activity at PDE4B (human recombinant) or PDE4D (human recombinant) was determined by IMAP Fluorescence Polarisation ([…]) assay (IMAP Explorer kit, available from Molecular Devices Corporation, Sunnydale, Calif., USA; Molecular Devices code: R^8062) in 384-well format. The IMAP FP assay is able to measure PDE activity in an homogenous, non-radioactive assay format. The FP assay uses the ability of immobilised trivalent metal cations, coated onto nanoparticles (tiny beads), to bind the phosphate group of Fl-AMP that is produced on the hydrolysis of fluorescein-labelled (Fl) cyclic adenosine mono-phosphate (Fl-cAMP) to the non-cyclic Fl-AMP form. […] Binding of Fl-AMP product to the beads (coated with the immobilised trivalent cations) slows the rotation of the bound Fl-AMP and leads to an increase in the fluorescence polarisation ratio of parallel to perpendicular light. Inhibition of the PDE reduces/inhibits this signal increase. […]
A general note: Polarisation of emitted light reports the rotation of a fluorescent probe.
T1 sequence (Q07343 1-564 isoform Q07343-2): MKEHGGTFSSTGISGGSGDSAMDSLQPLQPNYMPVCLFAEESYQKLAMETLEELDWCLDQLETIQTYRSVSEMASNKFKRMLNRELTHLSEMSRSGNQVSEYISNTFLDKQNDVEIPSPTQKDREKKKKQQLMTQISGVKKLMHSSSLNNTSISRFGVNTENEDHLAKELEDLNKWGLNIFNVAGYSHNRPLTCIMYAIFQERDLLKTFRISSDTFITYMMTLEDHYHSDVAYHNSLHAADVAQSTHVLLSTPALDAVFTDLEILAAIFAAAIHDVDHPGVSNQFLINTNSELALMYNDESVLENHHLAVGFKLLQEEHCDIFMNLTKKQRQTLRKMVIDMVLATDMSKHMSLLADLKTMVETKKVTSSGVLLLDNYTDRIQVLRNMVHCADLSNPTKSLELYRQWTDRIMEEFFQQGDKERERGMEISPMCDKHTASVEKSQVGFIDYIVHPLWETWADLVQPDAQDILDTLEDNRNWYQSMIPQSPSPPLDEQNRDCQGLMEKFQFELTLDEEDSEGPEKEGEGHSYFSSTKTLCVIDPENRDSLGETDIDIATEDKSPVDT
For `CCn1ncc2c(NC3CCOCC3)c(C(=O)NCc3ccc(Br)cc3)cnc21` [Example 628, N-[(4-Bromophenyl)methyl]-1-ethyl-4-(tetrahydro-2H-pyran-4-ylamino)-1H-pyrazolo[3,4-b]pyridine-5-carboxamide], the IC50 was 0.1 to 6.31 nM.

Turning to `CCn1ncc2c(NC3CCCCC3)c(C(=O)NCc3ccc(OC)cc3)cnc21` [Example 431, 4-(Cyclohexylamino)-1-ethyl-N-{[4-(methyloxy)phenyl]methyl}-1H-pyrazolo[3,4-b]pyridine-5-carboxamide], the IC50 was 0.1 to 6.31 nM.

Take `CCOC(=O)c1cnc2c(cnn2CC)c1NC1CCCC1` [Example 1, Ethyl 4-(cyolopentylamino)-1-ethyl-1H-pyrazolo[3,4-b]pyridine-5-carboxylate]: the IC50 is 12.6 to 100 nM.

On to `CCn1ncc2c(NC3CCC(=O)CC3)c(C(=O)NCc3ccc(C)cc3C)cnc21` [Example 260, N-[(2,4-dimethylphenyl)methyl]-1-ethyl-4-[(4-oxocyclohexyl)amino]-1H-pyrazolo[3,4-b]pyridine-5-carboxamide], for which the IC50 was 0.1 to 6.31 nM.

In the case of `CCOC(=O)c1cnc2c(cnn2C)c1NC1CCCC1` [Example 6], the IC50 was 251 nM.

Consider `CCn1ncc2c(NC3CCCCC3)c(C(=O)NCc3ccccc3)cnc21` [Example 40, N-Benzyl-4-(cyclohexylamino)-1-ethyl-1H-pyrazolo[3,4-b]pyridine-5-carboxamide], for which the IC50 was 5.01 nM.

For `CCn1ncc2c(NC3CCC(=NO)CC3)c(C(=O)NCc3ccc(OC)cc3)cnc21` (centres unmarked) [Example 653, 1-Ethyl-4-{[4-(hydroxyimino)cyclohexyl]amino}-N-{[4-(methyloxy)phenyl]methyl}-1H-pyrazolo[3,4-b]pyridine-5-carboxamide], the IC50 was 0.1 to 6.31 nM.

Take `CCn1ncc2c(NC3CCC(=O)CC3)c(C(=O)NCc3ccc(OC)cc3)cnc21` [Example 263]: the IC50 was 0.1 to 6.31 nM.

Turning to `CCn1ncc2c(NC3CCC(=NO)CC3)c(C(=O)NCc3ccc(C)c(C)c3)cnc21` (centres unmarked) [Example 681, N-[(3,4-dimethylphenyl)methyl]-1-ethyl-4-{[4-(hydroxyimino)cyclohexyl]amino}-1H-pyrazolo[3,4-b]pyridine-5-carboxamide], the IC50 is 0.1 to 6.31 nM.

Consider `CCCn1ncc2c(NC3CCOCC3)c(C(=O)NCc3ccc(S(C)(=O)=O)cc3)cnc21` [Example 187, N-[4-(Methylsulfonyl)benzyl]-1-n-propyl-4-(tetrahydro-2H-pyran-4-ylamino)-1H-pyrazolo[3,4-b]pyridine-5-carboxamide], for which the IC50 was 12.6 to 100 nM.

Take `CCn1ncc2c(NC3CCOCC3)c(C(=O)NCc3ccc(C)c(Cl)c3)cnc21` [Example 493, N-[(3-Chloro-4-methylphenyl)methyl]-1-ethyl-4-(tetrahydro-2H-pyran-4-ylamino)-1H-pyrazolo[3,4-b]pyridine-5-carboxamide]: the IC50 is 0.1 to 6.31 nM.

In the case of `CCn1ncc2c(NC3CCOCC3)c(C(=O)NCc3ccccc3I)cnc21` [Example 638, 1-Ethyl-N-[(2-iodophenyl)methyl]-4-(tetrahydro-2H-pyran-4-ylamino)-1H-pyrazolo[3,4-b]pyridine-5-carboxamide], the IC50 is 0.1 to 6.31 nM.

`CCn1ncc2c(NC3CCOCC3)c(C(=O)NCc3cc(Cl)cc(Cl)c3)cnc21` [Example 581, N-[(3,5-Dichlorophenyl)methyl]-1-ethyl-4-(tetrahydro-2H-pyran-4-ylamino)-1H-pyrazolo[3,4-b]pyridine-5-carboxamide]: the IC50 is 0.1 to 6.31 nM.

Turning to `CCc1ccccc1CNC(=O)c1cnc2c(cnn2CC)c1NC1CCOCC1` [Example 619, 1-Ethyl-N-[(2-ethylphenyl)methyl]-4-(tetrahydro-2H-pyran-4-ylamino)-1H-pyrazolo[3,4-b]pyridine-5-carboxamide], the IC50 was 0.1 to 6.31 nM.

`CCn1ncc2c(NC3CCOCC3)c(C(=O)NCc3ccc(I)cc3)cnc21` [Example 630]: the IC50 is 0.1 to 6.31 nM.

For `CCn1ncc2c(NC3CCOCC3)c(C(=O)NCc3ccc(C)cc3C)cnc21` [Example 584, N-[(2,4-Dimethylphenyl)methyl]-1-ethyl-4-(tetrahydro-2H-pyran-4-ylamino)-1H-pyrazolo[3,4-b]pyridine-5-carboxamide], the IC50 is 0.1 to 6.31 nM.

With `CCn1ncc2c(NC3CCC(=O)CC3)c(C(=O)NCc3cccc(Cl)c3Cl)cnc21` [Example 677, N-[(2,3-Dichlorophenyl)methyl]-1-ethyl-4-[(4-oxocyclohexyl)amino]-1H-pyrazolo[3,4-b]pyridine-5-carboxamide], the IC50 was 0.1 to 6.31 nM.

For the compound `CCc1cc(CC)cc(CNC(=O)c2cnc3c(cnn3CC)c2NC2CCOCC2)c1` [Example 575, N-[(3,5-Diethylphenyl)methyl]-1-ethyl-4-(tetrahydro-2H-pyran-4-ylamino)-1H-pyrazolo[3,4-b]pyridine-5-carboxamide], the IC50 is 0.1 to 6.31 nM.

Regarding `CCn1ncc2c(NC3CCOCC3)c(C(=O)NCc3ccccc3OC(F)F)cnc21` [Example 495, N-({2-[(Difluoromethyl)oxy]phenyl}methyl)-1-ethyl-4-(tetrahydro-2H-pyran-4-ylamino)-1H-pyrazolo[3,4-b]pyridine-5-carboxamide], the IC50 was 0.1 to 6.31 nM.

For `CCn1ncc2c(NC3CCC(=NO)CC3)c(C(=O)NCc3ccc(C(F)(F)F)cc3)cnc21` (centres unmarked) [Example 686, 1-Ethyl-4-{[4-(hydroxyimino)cyclohexyl]amino}-N-{[4-(trifluoromethyl)phenyl]methyl}-1H-pyrazolo[3,4-b]pyridine-5-carboxamide], the IC50 is 0.1 to 6.31 nM.

Turning to `CCn1ncc2c(NC3CCOCC3)c(C(=O)NCc3cccc(OC(F)F)c3)cnc21` [Example 498, N-({3-[(Difluoromethyl)oxy]phenyl}methyl)-1-ethyl-4-(tetrahydro-2H-pyran-4-ylamino)-1H-pyrazolo[3,4-b]pyridine-5-carboxamide], the IC50 is 0.1 to 6.31 nM.

In the case of `CCn1ncc2c(NC3CCOCC3)c(C(=O)NCc3ccc(C(C)C)cc3)cnc21` [Example 551, 1-Ethyl-N-{[4-(1-methylethyl)phenyl]methyl)-4-(tetrahydro-2H-pyran-4-ylamino)-1H-pyrazolo[3,4-b]pyridine-5-carboxamide], the IC50 was 0.1 to 6.31 nM.

For `CCn1ncc2c(NC3CCC(=O)CC3)c(C(=O)NCc3ccc(C(F)(F)F)cc3)cnc21` [Example 267, 1-Ethyl-4-[(4-oxocyclohexyl)amino]-N-{[4-(trifluoromethyl)phenyl]methyl}-1H-pyrazolo[3,4-b]pyridine-5-carboxamide], the IC50 was 0.1 to 6.31 nM.

Regarding `CCn1ncc2c(NC3CCOCC3)c(C(=O)NCc3cc(C)cc(C)c3)cnc21` [Example 624, N-[(3,5-Dimethylphenyl)methyl]-1-ethyl-4-(tetrahydro-2H-pyran-4-ylamino)-1H-pyrazolo[3,4-b]pyridine-5-carboxamide], the IC50 is 0.1 to 6.31 nM.

As for `CCC(CC)CNC(=O)c1cnc2c(cnn2CC)c1NC1CCCCC1` [Example 43, 4-(Cyclohexylamino)-1-ethyl-N-(2-ethylbutyl)-1H-pyrazolo[3,4-b]pyridine-5-carboxamide], the IC50 was 12.6 to 100 nM.

On to `CCn1ncc2c(NC3CCOCC3)c(C(=O)NC3Cc4ccccc4C3)cnc21` [Example 165, N-(2,3-Dihydro-1H-inden-2-yl)-1-ethyl-4-(tetrahydro-2H-pyran-4-ylamino)-1H-pyrazolo[3,4-b]pyridine-5-carboxamide], for which the IC50 is 0.1 to 6.31 nM.

These data come from patent publication US20060089375A1, “Pyrazolo[3,4-b] pyridine compounds, and their use as phosphodiesterase inhibitors” (priority 2002, published 2006).
